# “Also recorded” adds a separate entry of the source. Like-named read-outs stand apart in the source and are kept apart here.
# Key:
# [1] = target: T1, rNaV1.4 expressed in CHO cells (Rattus norvegicus, UniProt P15390); assay: Activation: current-voltage (I-V) and conductance-voltage (G-V) relationship, whole-cell recording; type: cell-based
# T1 construct: expressed in transfected cells; host or cells: CHO cells
# Protocol: To determine if the shift in I-V relationship is affected by the aromaticity of the aconitine C14 benzoate, current-voltage relationships were recorded for control cells expressing NaV, those that had been modified by aconitine, and those that had been modified by aconitine C14-cyclohexanoate 4.8d. For the modified channels, solutions of 50 μM concentration of the respective toxins were perfused onto the cells, and then depolarizing pulses were applied until a steady state current was observed, generally requiring about 1000 pulses. At that time, current-voltage relationships were again recorded. […] A shift towards hyperpolarizing potentials is clearly observed in both cases. Currents recorded at −50 mV are highlighted for all three experiments.
# To determine the effect on current-voltage (I-V) relationship of the aconitine derivatives, whole cell currents were recorded in cells expressing NaV in the presence of aconitine derivatives. Control I-V plots were recorded with unmodified NaV1.4, to which were compared NaV channels modified by aconitine as well as by selected analogs. For the modified channels, solutions of the respective toxins were perfused onto the cells, and then depolarizing pulses were applied until a steady state current was observed, generally requiring about 1000 pulses. A sequence of test pulses was then recorded to determine the current-voltage relationships (using a step protocol in which CHO cells were depolarized for 10 ms from a holding potential of −100 mV to a range of potentials from −95 mV to +30 mV in 5 or 10 mV increments; peak currents were normalized to the maximum peak current and plotted against voltage).
# [2] = target: T1, rNaV1.4 expressed in CHO cells; type: cell-based; conditions: for reversibility of binding upon wash-off: wash-off experiments, Table 3 concentrations
# Protocol: […] […] It is noteworthy that little or no increase in current was observed during wash off when no depolarizing pulses were applied and peak current was measured as a function of time.
# Since the molecules bind to the open-state of the Nav channel their release also requires activation pulses. In typical experiments, buffered external solution was perfused and a pulse train sequence was applied to the patch-clamp until the current reached a steady-state for at least two minutes.
# [3] = target: T1, rNaV1.4 expressed in CHO cells; assay: Na+ current block at steady state, whole-cell patch clamp with pulse trains; type: cell-based; conditions: for Current measured at 20 μM (%) / Current measured at 75 μM (%): before wash-off; for depolarizing pulses required to reach steady-state block: 10 Hz pulse trains
# Protocol: Binding of aconitine to NaV is use-dependent and is known to result both in a left shift of the current-voltage (I-V) relationship and in partial block of the channel. […] To determine whether aconitine binding is reversible, two experiments were designed. First, as block by aconitine is known to be use dependent, peak current was measured as a function of pulse number in the presence of two different concentrations of aconitine. Since aconitine binds preferentially to the open state of the sodium channel, a pulse train was applied sequentially with a control pulse used to record peak current. The pulse train consisted of a series of 50 depolarizing pulses (from −100 mV holding potential to 0 mV, 10 ms duration) applied at 10 Hz frequency, while the control pulse consisted of a single depolarizing pulse (from −100 mV holding potential to 0 mV test potential, 10 ms duration).
# Pulse trains of 10 Hz frequency and control pulses were applied sequentially to cells expressing rNaV1.4, and currents elicited from the control pulse were recorded after each pulse train. This process was repeated until the current elicited from the control pulse had reached a steady state and was no longer decreasing with each additional pulse train. If block were irreversible, this steady state current would be expected to be independent of toxin concentration—the toxin would not be able to dissociate from its receptor, and the number of toxin molecules is much greater than the number of sodium channels (assuming a 100 μL chamber containing 1000 CHO cells, each expressing 10,000 sodium channels, at 50 μM concentration toxin molecules outnumber receptors by a factor of 3×10^8:1), therefore, all receptors would eventually reach the bound state.
# Block by aconitine is known to be use-dependent, therefore the use-dependence of the C14 derivatives of aconitine was evaluated. Peak Na current was measured as a function of pulse number in the presence of different concentrations of the molecules. […] Since aconitine binds preferentially to the open state of the sodium channel, a pulse train was applied sequentially with a control pulse used to record peak current. The pulse train consisted of a series of 50 depolarizing pulses (from −100 mV holding potential to 0 mV, 10 ms duration) applied at 10 Hz frequency, while the control pulse consisted of a single depolarizing pulse (from −100 mV holding potential to 0 mV test potential, 10 ms duration).
# Pulse trains of 10 Hz frequency and control pulses were applied sequentially to CHO cells expressing rNaV1.4, and currents elicited from the control pulse were recorded after each pulse train. This process was repeated until the current elicited from the control pulse had reached a steady state and was no longer decreasing with each additional pulse train. If block were irreversible, this steady state current would be expected to be independent of toxin concentration—the toxin would not be able to dissociate from its receptor, and the number of toxin molecules is much greater than the number of sodium channels, therefore, all receptors would eventually reach the bound state.
# The ability of the synthesized aconitine derivatives to block NaV channels was evaluated with patch-clamp experiments in the whole-cell configuration on CHO cells expressing rNaV1.4 heterologously. A buffer solution containing the toxin was applied to the cells, whole-cell Na^+ currents were recorded until the decreasing current reached a steady-state (300 to 3000 pulses, depending on the molecules and concentrations). The peak Na^+ currents were measured with a depolarizing test pulse (from −100 mV holding potential to 0 mV test potential, 10 ms duration).
# [4] = target: T1, rNaV1.4 expressed in CHO cells; assay: Steady-state inactivation, whole-cell recording, Boltzmann fit; type: cell-based
# Protocol: . The channels were modified by perfusing the cells with buffered solution containing aconitine at the given concentrations and then simple pulses (10 ms pulses to 0 mV from −100 mV holding potential) were recorded until the currents leveled to a steady value (typically ˜1000 pulses). Steady-state fast inactivation of the current was then determined by delivering 500 ms conditioning pulses to potentials ranging from −130 to −11 mV (7 my increments) immediately followed by a 10 ms test pulse to 0 mV to test the available current. The peak current measured during the test pulse was normalized to the maximum peak current recorded in the conditioning pulses. […] Midpoint voltage V0.5 represents the membrane potential at which half maximum current is observed; slope factor at midpoint k quantifies the rate at which the inactivation response occurs.
# NaV1.8 = NaV1.8 (Homo sapiens, UniProt Q9Y5Y9); conditions: cited from earlier work
# Chain of NaV1.8 (Q9Y5Y9 whole entry, looked up): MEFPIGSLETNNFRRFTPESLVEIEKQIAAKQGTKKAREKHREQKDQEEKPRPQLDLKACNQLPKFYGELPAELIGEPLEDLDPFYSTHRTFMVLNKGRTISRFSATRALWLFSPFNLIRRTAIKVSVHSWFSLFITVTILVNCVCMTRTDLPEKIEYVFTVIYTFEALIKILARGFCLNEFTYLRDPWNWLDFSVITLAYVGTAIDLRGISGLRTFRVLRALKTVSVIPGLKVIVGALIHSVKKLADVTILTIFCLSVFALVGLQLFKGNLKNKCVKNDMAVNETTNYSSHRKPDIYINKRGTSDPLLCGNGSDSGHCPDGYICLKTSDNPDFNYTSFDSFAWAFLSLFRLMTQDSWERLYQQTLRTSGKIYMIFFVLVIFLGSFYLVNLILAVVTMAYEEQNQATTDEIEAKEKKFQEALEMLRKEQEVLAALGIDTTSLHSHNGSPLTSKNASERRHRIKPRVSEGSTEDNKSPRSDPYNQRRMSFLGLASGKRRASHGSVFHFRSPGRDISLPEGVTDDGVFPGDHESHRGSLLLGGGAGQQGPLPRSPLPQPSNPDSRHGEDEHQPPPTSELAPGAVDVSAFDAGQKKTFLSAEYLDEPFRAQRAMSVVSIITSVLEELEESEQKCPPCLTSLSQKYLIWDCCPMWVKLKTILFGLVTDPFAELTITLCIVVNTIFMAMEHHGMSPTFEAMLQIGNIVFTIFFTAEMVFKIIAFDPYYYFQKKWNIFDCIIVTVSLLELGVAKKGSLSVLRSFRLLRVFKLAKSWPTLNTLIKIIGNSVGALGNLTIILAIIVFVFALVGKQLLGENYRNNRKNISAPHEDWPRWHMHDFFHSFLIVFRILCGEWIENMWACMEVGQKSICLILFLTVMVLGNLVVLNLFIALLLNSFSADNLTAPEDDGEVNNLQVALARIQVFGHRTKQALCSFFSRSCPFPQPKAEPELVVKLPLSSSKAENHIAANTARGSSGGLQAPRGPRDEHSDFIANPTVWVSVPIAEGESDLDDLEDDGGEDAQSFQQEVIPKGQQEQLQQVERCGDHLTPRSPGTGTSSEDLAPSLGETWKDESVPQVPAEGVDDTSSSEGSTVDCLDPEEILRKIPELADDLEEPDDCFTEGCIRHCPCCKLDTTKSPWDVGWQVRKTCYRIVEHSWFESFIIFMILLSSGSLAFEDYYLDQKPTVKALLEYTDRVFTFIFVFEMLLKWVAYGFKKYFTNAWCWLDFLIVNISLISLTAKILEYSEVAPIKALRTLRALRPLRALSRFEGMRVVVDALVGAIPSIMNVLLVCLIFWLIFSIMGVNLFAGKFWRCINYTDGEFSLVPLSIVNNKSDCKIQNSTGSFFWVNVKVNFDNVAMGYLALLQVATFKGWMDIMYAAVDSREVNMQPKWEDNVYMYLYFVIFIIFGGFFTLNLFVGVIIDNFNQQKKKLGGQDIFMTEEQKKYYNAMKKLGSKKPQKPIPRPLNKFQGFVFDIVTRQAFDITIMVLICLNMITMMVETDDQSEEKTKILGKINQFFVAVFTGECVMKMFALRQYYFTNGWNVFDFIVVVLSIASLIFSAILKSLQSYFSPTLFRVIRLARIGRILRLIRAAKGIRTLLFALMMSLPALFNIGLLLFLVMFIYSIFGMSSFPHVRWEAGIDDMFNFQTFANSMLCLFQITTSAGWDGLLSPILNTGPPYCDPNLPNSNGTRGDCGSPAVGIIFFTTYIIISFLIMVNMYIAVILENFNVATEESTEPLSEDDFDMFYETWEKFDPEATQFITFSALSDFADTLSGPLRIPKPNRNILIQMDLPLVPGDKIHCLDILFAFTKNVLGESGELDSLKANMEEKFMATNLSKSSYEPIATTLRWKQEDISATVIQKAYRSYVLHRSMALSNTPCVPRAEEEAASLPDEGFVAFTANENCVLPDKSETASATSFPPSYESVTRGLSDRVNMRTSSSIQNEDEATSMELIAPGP
# NaV1.2 = NaV1.2 (Homo sapiens, UniProt Q99250); conditions: cited from earlier work
# T1 sequence (P15390 whole entry): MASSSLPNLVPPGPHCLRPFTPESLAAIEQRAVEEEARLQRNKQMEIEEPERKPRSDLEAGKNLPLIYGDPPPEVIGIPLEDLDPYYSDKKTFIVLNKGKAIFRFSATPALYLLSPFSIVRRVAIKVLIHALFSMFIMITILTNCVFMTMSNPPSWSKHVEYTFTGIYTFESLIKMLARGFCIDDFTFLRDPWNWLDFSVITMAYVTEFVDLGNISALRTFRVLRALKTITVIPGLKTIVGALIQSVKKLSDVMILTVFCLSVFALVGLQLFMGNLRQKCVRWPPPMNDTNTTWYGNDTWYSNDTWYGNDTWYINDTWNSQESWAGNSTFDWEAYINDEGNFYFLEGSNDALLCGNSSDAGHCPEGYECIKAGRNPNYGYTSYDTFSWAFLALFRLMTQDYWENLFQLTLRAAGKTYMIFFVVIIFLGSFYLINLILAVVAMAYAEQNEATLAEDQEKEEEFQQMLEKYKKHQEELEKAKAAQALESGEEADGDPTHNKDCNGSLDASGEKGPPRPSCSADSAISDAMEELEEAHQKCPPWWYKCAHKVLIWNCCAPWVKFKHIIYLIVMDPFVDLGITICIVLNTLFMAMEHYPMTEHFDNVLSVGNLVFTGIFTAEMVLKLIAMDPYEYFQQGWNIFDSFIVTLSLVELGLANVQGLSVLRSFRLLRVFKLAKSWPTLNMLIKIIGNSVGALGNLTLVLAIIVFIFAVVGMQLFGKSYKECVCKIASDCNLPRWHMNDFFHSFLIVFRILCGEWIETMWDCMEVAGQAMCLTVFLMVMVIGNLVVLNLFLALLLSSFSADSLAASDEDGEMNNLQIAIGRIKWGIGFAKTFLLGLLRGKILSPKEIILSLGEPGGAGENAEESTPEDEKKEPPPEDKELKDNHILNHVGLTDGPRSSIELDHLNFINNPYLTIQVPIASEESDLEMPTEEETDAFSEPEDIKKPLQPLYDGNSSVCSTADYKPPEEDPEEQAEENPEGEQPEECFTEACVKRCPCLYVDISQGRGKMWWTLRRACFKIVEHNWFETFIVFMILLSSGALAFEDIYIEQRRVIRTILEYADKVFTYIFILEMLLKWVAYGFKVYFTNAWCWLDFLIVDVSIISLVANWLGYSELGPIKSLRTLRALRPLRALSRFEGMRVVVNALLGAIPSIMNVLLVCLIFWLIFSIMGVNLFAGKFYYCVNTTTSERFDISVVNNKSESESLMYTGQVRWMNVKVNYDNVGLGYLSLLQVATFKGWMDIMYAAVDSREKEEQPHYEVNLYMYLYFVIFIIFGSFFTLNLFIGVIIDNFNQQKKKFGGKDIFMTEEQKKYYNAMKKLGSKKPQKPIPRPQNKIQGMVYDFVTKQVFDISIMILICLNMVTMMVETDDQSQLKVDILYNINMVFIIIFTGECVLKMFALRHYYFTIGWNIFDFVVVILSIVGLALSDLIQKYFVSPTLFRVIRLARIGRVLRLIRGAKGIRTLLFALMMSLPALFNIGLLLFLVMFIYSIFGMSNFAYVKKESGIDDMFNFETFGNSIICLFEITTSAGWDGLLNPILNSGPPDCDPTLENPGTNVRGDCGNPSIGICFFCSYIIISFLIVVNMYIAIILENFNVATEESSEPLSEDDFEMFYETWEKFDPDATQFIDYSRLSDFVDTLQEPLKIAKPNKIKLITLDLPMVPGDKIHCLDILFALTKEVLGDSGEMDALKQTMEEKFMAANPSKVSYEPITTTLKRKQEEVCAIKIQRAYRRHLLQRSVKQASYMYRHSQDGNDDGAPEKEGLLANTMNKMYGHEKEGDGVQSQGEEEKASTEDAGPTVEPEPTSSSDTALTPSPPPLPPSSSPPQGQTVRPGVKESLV
smiles,measurement,setting,value
CCN1CC2(COC)C3C(OC)C4C1C3(C1C[C@@]3(O)[C@H](OC(=O)c5ccc6ccccc6c5)[C@@H]1[C@]4(OC(C)=O)[C@@H](O)[C@@H]3OC)[C@@H](OC)C[C@H]2O (stereo partly drawn) [4.8c],Activation V0.5 (mV),[1]; 5 μM,−23.1 mV
same,Activation hg,[1]; 5 μM,13.1
same,Current after wash-off (%),[2]; after wash-off of 20 μM,4%
same,Current after wash-off (%),[2]; after wash-off of 73 μM (footnote b),3^b %
same,reversibility of binding upon wash-off,[2],did not restore substantial current; also recorded: completely irreversible
same,% Remaining current after reaching steady-state binding,[3]; 5 μM,38%
same,% Remaining current after reaching steady-state binding,[3]; 20 μM,5%
same,peak current blocked at steady state,[3]; 20 μM,around 95%
same,Current measured at 20 μM (%),[3]; 20 μM,3%
same,depolarizing pulses required to reach steady-state block,[3]; 20 μM,800 pulses
same,peak current blocked at steady state,[3]; 73 μM,over 97%
same,Current measured at 75 μM (%),[3]; 73 μM (footnote b),3^b %
same,% Remaining current after reaching steady-state binding,"[3]; 73 μM (footnote c, 75 μM column)",3^c %
same,depolarizing pulses required to reach steady-state block,[3]; 73 μM,≤ 300 pulses
same,% Remaining current after reaching steady-state binding,[3]; 200 μM,3%
same,current observed at steady state,[3]; concentrations of 20 μM and above,≤ 5%
CCN1CC2(COC)C3C(OC)C4C1C3(C1C[C@@]3(O)[C@H](OC(=O)C5CCCCC5)[C@@H]1[C@]4(OC(C)=O)[C@@H](O)[C@@H]3OC)[C@@H](OC)C[C@H]2O (stereo partly drawn) [4.8d],shift of voltage of half-activation (V0.5) towards the hypo-polarization,[1],more than 20 mV
same,effect on activation threshold,[1]; 20 μM,did not significantly shift the activation threshold
same,hypopolarized shift of potential of maximum current,[1]; 20 μM,10 mV
same,membrane potential at which maximum current is observed,[1]; 20 μM,0 mV
same,Activation V0.5 (mV),[1]; 21 μM,1.3 mV
same,Activation hg,[1]; 21 μM,15.4
same,current at −50 mV,"[1]; 50 μM, after about 1000 pulses, no current in control cells",substantial currents; also recorded: more pronounced effect in this respect than the natural product
same,Current after wash-off (%),[2]; after wash-off of 20 μM,79%
same,Current after wash-off (%),[2]; after wash-off of 21 μM (footnote c),79^c %
same,% Remaining current after reaching steady-state binding,[3]; 5 μM,82%
same,peak current blocked at steady state,[3]; 20 μM,85%
same,depolarizing pulses required to reach steady-state block,[3]; 20 μM,around 600 pulses
same,Current measured at 20 μM (%),[3]; 21 μM (footnote c),15^c %
same,% Remaining current after reaching steady-state binding,[3]; 50 μM,10%
same,peak current blocked at steady state,[3]; 50 μM,90%
same,depolarizing pulses required to reach steady-state block,[3]; 50 μM,Approximately 1000 pulses
same,% Remaining current after reaching steady-state binding,[3]; 200 μM,6%
same,peak current blocked at steady state,[3]; 200 μM,94%
same,depolarizing pulses required to reach steady-state block,[3]; 200 μM,200 pulses
same,effect on threshold for inactivation,[4]; 20 μM,shifted the threshold for inactivation towards higher potentials
same,Steady-state inactivation V0.5 (mV),[4]; 21 μM,−53.1 mV
same,Steady-state inactivation k (slope factor at midpoint),[4]; 21 μM,8.1
same,slope factor k of steady-state inactivation,"[4]; concentration not given, unmodified ˜6",~8
CCN1CC2(COC)C3C(OC)C4C1C3(C1C[C@@]3(O)[C@H](OC(=O)c5ccccc5N=[N+]=[N-])[C@@H]1[C@]4(OC(C)=O)[C@@H](O)[C@@H]3OC)[C@@H](OC)C[C@H]2O (stereo partly drawn) [4.8f],% Remaining current after reaching steady-state binding,[3]; 50 μM,22%
CCN1CC2(COC)C3[C@H](OC)C4C1C3(C1C[C@@]3(O)[C@H](OC(=O)c5cc6ccccc6oc5=O)C1[C@]4(OC(C)=O)[C@@H](O)[C@@H]3OC)[C@@H](OC)C[C@H]2O (stereo partly drawn) [4.8g],Activation V0.5 (mV),[1]; 75 μM,−36 mV
same,Activation hg,[1]; 75 μM,8.9
same,Current after wash-off (%),[2]; after wash-off of 20 μM,83%
same,Current after wash-off (%),[2]; after wash-off of 75 μM,31%
same,reversibility of binding upon wash-off,[2],did not restore substantial current
same,concentration required to achieve the current levels observed with 20 μM aconitine,[3],75 µM
same,% Remaining current after reaching steady-state binding,[3]; 20 μM,79%
same,peak current blocked at steady state,[3]; 20 μM,21%
same,Current measured at 20 μM (%),[3]; 20 μM,79%
same,depolarizing pulses required to reach steady-state block,[3]; 20 μM,over 2500 pulses
same,% Remaining current after reaching steady-state binding,[3]; 75 μM,23%
same,peak current blocked at steady state,[3]; 75 μM,77%
same,Current measured at 75 μM (%),[3]; 75 μM,23%
same,depolarizing pulses required to reach steady-state block,[3]; 75 μM,over 3000 pulses
same,Steady-state inactivation V0.5 (mV),[4]; 75 μM,−75.6 mV
same,Steady-state inactivation k (slope factor at midpoint),[4]; 75 μM,11.6
same,steady-state inactivation V0.5,[4]; concentration not given,−76 mV
same,shift of steady-state inactivation V0.5 compared to the unmodified NaV channel,"[4]; toward hyperpolarized potentials, concentration not given",23 mV
"NC1=N[C@H](O)[C@H]2[C@H]3O[C@]4(O)O[C@@H]([C@@H](O)[C@@]2(N1)[C@@H]4O)[C@]3(O)CO [TTX, tetrodotoxin]",TTX potency,NaV1.8,60 µM
same,TTX potency,NaV1.2,0.012 µM
